Laboratory results as given in patent US9771375B2, “Indazole compounds useful as ketohexokinase inhibitors” (JANSSEN PHARMACEUTICA NV, priority 2010, dated 2017).
pIC50: −log10 of the molar value. Where a name gives a salt, the structure may show the parent alone.

Target: KHK (Homo sapiens (Human), UniProt P50053)
Test: In Vitro KHK Enzyme Assay (HTMS detection of fructose-1-P)
Assay type: biochemical
Details: 100 μM ATP, 2 nM KHK, 60 min at 25° C., 12-point dose-response
Procedure: An enzymatic assay was developed to measure KHK-mediated conversion of D-fructose to Fructose-1-P (F-1-P) using High Throughput Mass Spectroscopy (HTMS) as a means of product detection. This assay served as a primary screen to evaluate the ability to inhibit KHK enzyme activity and it has been adapted to high throughput mass spectrometry (HTMS, BioTrove RapidFire™) format for higher throughput.
The compounds to be tested were dosed in 12-points concentration from 511 μM to 0.5 μM. […] The assay was carried out in 384-well plate format.

Chain of KHK (P50053 whole entry): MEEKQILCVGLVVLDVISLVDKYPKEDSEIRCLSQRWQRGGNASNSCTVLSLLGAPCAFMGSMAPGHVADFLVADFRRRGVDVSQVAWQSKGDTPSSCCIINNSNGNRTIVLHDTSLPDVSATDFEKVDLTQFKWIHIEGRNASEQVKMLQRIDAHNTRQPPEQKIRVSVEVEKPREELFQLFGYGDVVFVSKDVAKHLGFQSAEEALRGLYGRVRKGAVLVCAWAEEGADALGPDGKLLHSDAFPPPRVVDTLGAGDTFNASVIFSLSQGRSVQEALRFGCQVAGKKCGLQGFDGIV

Cc1nn(-c2ccccc2)c2cc(N3CCC(N4CCNCC4)CC3)ccc12 [Compound 57, 3-Methyl-1-phenyl-6-(4-piperazin-1-yl-piperidin-1-yl)-1H-indazole hydrochloride]
pIC50: 5.49
